Like-named read-outs stand apart in the source and are kept apart here.
Columns and labels:
[1] = system: Leishmania donovani axenic amastigote parasites; assay: Leishmania donovani axenic amastigote proliferation assay (Cell TiterGlo luminescence, 2 day incubation); assay type: cell-based; settings: Leishmania donovani, axenic amastigotes, inhibition of proliferation; read-out: L. donovani amastigotes EC50
[2] = system: L. donovani HU3 strain in mouse peritoneal macrophages; assay: Assay for proliferation of Leishmania parasites in infected mouse peritoneal macrophages (SybrGreen staining, high-content imaging, 5 days); assay type: cell-based, Leishmania donovani; settings: Leishmania donovani, Peritoneal macrophage, L. donovani in mouse peritoneal macrophages, inhibition of proliferation; read-out: L. donovani Macrophage EC50
[3] = system: Trypanosoma cruzi amastigotes (Tulahuen strain expressing Lac-Z) cultured in 3T3 fibroblast cells; assay: microbe, parasite or virus in culture; assay type: cell-based; settings: Trypanosoma cruzi, TULAHUEN, Fibroblast, T. cruzi amastigotes in 3T3 fibroblast cells, inhibition of proliferation; read-out: T cruzi EC50
[4] = system: Trypanosoma brucei Lister 427 strain, bloodstream form; assay: Assay for proliferation of kinetoplastid parasite Trypanosoma brucei (Cell Titer Glo, 48 hours); assay type: cell-based; settings: Trypanosoma brucei, read-out: T. brucei EC50
Method in brief: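 Bloodstream-form T. brucei Lister 427 in HMI-9 medium was exposed to compound (DMSO vehicle) for 48 hours at 37° C, 5% CO2. Parasite growth was read as ATP by CellTiter-Glo luminescence, with EC50 calculated from percent inhibition.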

[5] = T. brucei Lister 427 bloodstream form, inhibition of proliferation

SMILES	EC50 [1]	EC50 [2]	EC50 [3]	EC50 [4, 5]	EC50 [4]
CC(C)OC(=O)Nc1cnc2nc(-c3cc(NC(=O)NN)ccc3Cl)cn2c1 [Compound 257]	9220 nM	> 33800 nM	4050 nM	4650 nM	
CC(C)OC(=O)Nc1cnc2nc(-c3cc(NC(=O)N4C[C@@H]5C[C@H]4CO5)ccc3Cl)cn2c1 [Compound 258]	20200 nM	> 42400 nM	> 20000 nM	13100 nM	
CC(C)OC(=O)Nc1cnc2nc(-c3cc(NC(=O)N4CCCC4c4ccccn4)ccc3Cl)cn2c1 (stereo not shown) [Compound 259]	> 22100 nM	23700 nM	10900 nM	34600 nM	
CC(C)OC(=O)Nc1cnc2nc(-c3cc(NC(=O)N4CCC[C@@H]4C(F)(F)F)ccc3Cl)cn2c1 [Compound 260]	> 25000 nM	3830 nM	4550 nM	> 50000 nM	
CC(C)OC(=O)Nc1cnc2nc(-c3cc(NC(=O)N4CCC5(C4)CC5(F)F)ccc3Cl)cn2c1 (stereo not shown) [Compound 261]	4320 nM	7030 nM	1900 nM	1220 nM	
CC(C)CNC(=O)Nc1ccc(Cl)c(-c2cn3cc(NC(=O)OC(C)C)cnc3n2)c1 [Compound 263]	1740 nM	3530 nM	1320 nM	1100 nM	
CC(C)OC(=O)Nc1cnc2nc(-c3cc(NC(=O)N4CC[C@H](F)C4)ccc3Cl)cn2c1 [Compound 264]	4750 nM	> 14000 nM	4720 nM	4310 nM	
CO[C@@H]1CCN(C(=O)Nc2ccc(Cl)c(-c3cn4cc(NC(=O)OC(C)C)cnc4n3)c2)C1 [Compound 265]	978 nM	4260 nM	3930 nM	1550 nM	
CC(C)OC(=O)Nc1cnc2nc(-c3cc(NC(=O)N4CC(F)(F)C(F)(F)C4)ccc3Cl)cn2c1 [Compound 266]	1260 nM	3370 nM	1160 nM	1450 nM	
CC(C)OC(=O)Nc1cnc2nc(-c3cc(NC(=O)N4CC[C@@H](F)C4)ccc3Cl)cn2c1 [Compound 267]	485 nM	1800 nM	1920 nM	116 nM	
CC(C)OC(=O)Nc1cnc2nc(-c3cc(NC(=O)NC4CCC4)ccc3Cl)cn2c1 [Compound 269]	9590 nM	15100 nM	4160 nM	3570 nM	
CC(C)OC(=O)Nc1cnc2nc(-c3cc(NC(=O)N4C(C)CCC4C)ccc3Cl)cn2c1 (stereo not shown) [Compound 270]	2900 nM	2200 nM	701 nM	4110 nM	
CC(C)OC(=O)Nc1cnc2nc(-c3cc(NC(=O)N4CCC(N(C)C)C4)ccc3Cl)cn2c1 (stereo not shown) [Compound 275]	> 25000 nM	17100 nM	11700 nM	34700 nM	
CC(=O)N(C)C1CCN(C(=O)Nc2ccc(Cl)c(-c3cn4cc(NC(=O)OC(C)C)cnc4n3)c2)C1 (stereo not shown) [Compound 276]	> 25000 nM	> 50000 nM	> 20000 nM	8720 nM	
CC(C)OC(=O)Nc1cnc2nc(-c3cc(NC(=O)N4CC[C@@H](O)C4)ccc3Cl)cn2c1 [Compound 286]	> 19700 nM	> 50000 nM	> 20000 nM	29700 nM	
CC(C)OC(=O)Nc1cnc2nc(-c3cc(NC(=O)N4CC(F)C4)ccc3F)cn2c1 [Compound 287]	120 nM	402 nM	1430 nM	77 nM	
O=C(Nc1ccc(F)c(-c2cn3cc(-c4ccccn4)cnc3n2)c1)N1CC(F)(F)C1 [Compound 296, 3,3-difluoro-N-(4-fluoro-3-(6-(pyridin-2-yl)imidazo[1,2-a]pyrimidin-2-yl)phenyl)azetidine-1-carboxamide]	4 nM	13 nM	14 nM		12 nM
O=C(Nc1ccc(F)c(-c2cn3cc(C(F)(F)F)cnc3n2)c1)N1CC[C@H](F)C1 [Compound 297]	52 nM	223 nM	37 nM	51 nM	
CN(C)C(=O)Nc1ccc(F)c(-c2cn3cc(C(F)(F)F)cnc3n2)c1 [Compound 298]	781 nM	2230 nM	525 nM	355 nM	
O=C(Nc1ccc(F)c(-c2cn3cc(C(F)(F)F)cnc3n2)c1)N1CCC1 [Compound 299]	92 nM	178 nM	45 nM	34 nM	
O=C(Nc1ccc(F)c(-c2cn3cc(C(F)(F)F)cnc3n2)c1)N1CC(F)(F)C1 [Compound 300]	90 nM	397 nM	148 nM	155 nM	
CC(C)OC(=O)Nc1ccc(F)c(-c2cn3cc(C(F)(F)F)cnc3n2)c1 [Compound 301, isopropyl (4-fluoro-3-(6-(trifluoromethyl)imidazo[1,2-a]pyrimidin-2-yl)phenyl)carbamate]	727 nM	> 32400 nM	444 nM		307 nM

SMILES	EC50 [1]	EC50 [2]	EC50 [3]	EC50 [4, 5]	EC50 [4]
COCCOC(=O)Nc1cnc2nc(-c3cc(NC(=O)c4oc(C)nc4C)ccc3F)cn2c1 [Compound 304]	539 nM	10500 nM	2370 nM	1420 nM	
CCOC(=O)Nc1cnc2nc(-c3cc(NC(=O)c4oc(C)nc4C)ccc3F)cn2c1 [Compound 305]	112 nM	269 nM	499 nM	163 nM	
Cc1nc(C)c(C(=O)Nc2ccc(F)c(-c3cn4cc(NC(=O)OC5CCCC5)cnc4n3)c2)o1 [Compound 306]	315 nM	835 nM	673 nM	360 nM	
Cc1nc(C)c(C(=O)Nc2ccc(F)c(-c3cn4cc(NC(=O)OCCF)cnc4n3)c2)o1 [Compound 307]	249 nM	428 nM	2540 nM	356 nM	
Cc1nc(C)c(C(=O)Nc2ccc(F)c(-c3cn4cc(NC(=O)OCC(C)C)cnc4n3)c2)o1 [Compound 308]	211 nM	338 nM	329 nM	131 nM	
CCC(C)OC(=O)Nc1cnc2nc(-c3cc(NC(=O)c4oc(C)nc4C)ccc3F)cn2c1 (stereo not shown) [Compound 309]	109 nM	204 nM	275 nM	132 nM	
COC(=O)Nc1cnc2nc(-c3cc(NC(=O)c4oc(C)nc4C)ccc3F)cn2c1 [Compound 310]	243 nM	564 nM	1240 nM	293 nM	
C=C(C)OC(=O)Nc1cnc2nc(-c3cc(NC(=O)c4oc(C)nc4C)ccc3F)cn2c1 [Compound 311]	162 nM	12000 nM	5580 nM	1670 nM	
Cc1nc(C)c(C(=O)Nc2ccc(F)c(-c3cn4cc(NC(=O)OC5(C)CC5)cnc4n3)c2)o1 [Compound 312]	120 nM	139 nM	441 nM	54 nM	
COCCOC(=O)Nc1cnc2nc(-c3cc(NC(=O)N4CCCC4)ccc3F)cn2c1 [Compound 313]	761 nM	> 50000 nM	13300 nM	502 nM	
CC(C)OC(=O)Nc1ccc(F)c(-c2cn3cc(-c4ccccn4)cnc3n2)c1 [Compound 314]	46 nM	95 nM	15 nM	51 nM	
Cc1nc(C)c(C(=O)Nc2ccc(F)c(-c3cn4cc(NS(=O)(=O)C(C)C)cnc4n3)c2)o1 [Compound 315, N-(4-fluoro-3-(6-(1-methylethylsulfonamido)imidazo[1,2-a]pyrimidin-2-yl)phenyl)-2,4-dimethyloxazole-5-carboxamide]	2520 nM	19100 nM	> 19800 nM	4410 nM	
O=C(Nc1ccc(F)c(-c2cn3cc(-c4ccccc4)cnc3n2)c1)N1CC(F)C1 [Compound 317, 3-fluoro-N-(4-fluoro-3-(6-phenylimidazo[1,2-a]pyrimidin-2-yl)phenyl)azetidine-1-carboxamide]	14 nM	38 nM	12 nM	12 nM	
O=C(Nc1ccc(F)c(-c2cn3cc(C4=CCOCC4)cnc3n2)c1)N1CC(F)C1 [Compound 318]	31 nM	132 nM	146 nM	19 nM	
O=C(Nc1ccc(F)c(-c2cn3cc(-c4ccccc4)cnc3n2)c1)N1CC(F)(F)C1 [Compound 319]	33 nM	102 nM	20 nM	20 nM	
O=C(Nc1ccc(F)c(-c2cn3cc(C4=CCOCC4)cnc3n2)c1)N1CC(F)(F)C1 [Compound 320]	58 nM	180 nM	186 nM	35 nM	
O=C(Nc1ccc(F)c(-c2cn3cc(C4=CCOCC4)cnc3n2)c1)N1CCC1 [Compound 322]	43 nM	157 nM	76 nM	20 nM	
CN(C)C(=O)Nc1ccc(F)c(-c2cn3cc(-c4ccccc4)cnc3n2)c1 [Compound 323]	97 nM	278 nM	46 nM	47 nM	
CN(C)C(=O)Nc1ccc(F)c(-c2cn3cc(C4=CCOCC4)cnc3n2)c1 [Compound 324]	288 nM	1570 nM	253 nM	47 nM	
CCN(C)C(=O)Nc1ccc(F)c(-c2cn3cc(-c4ccccc4)cnc3n2)c1 [Compound 327]	167 nM	459 nM	50 nM	102 nM	
CCN(C)C(=O)Nc1ccc(F)c(-c2cn3cc(C4=CCOCC4)cnc3n2)c1 [Compound 328]	387 nM	1500 nM	302 nM	167 nM	

From patent publication US20160045505A1, “COMPOUNDS AND COMPOSITIONS FOR THE TREATMENT OF PARASITIC DISEASES” (NOVARTIS AG, priority 2013, published 2016)
